Tests used:
[1] = Potential characterization of nucleic acid lipid nanoparticle preparations; type: physicochemical
Summary of the method: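 Zeta potential was read on a Malvern ZEN3700 after diluting 20 μL lipid nanoparticle solution (about 0.04 mg/mL mRNA) into 780 μL ultrapure water. Alternatively, a 27.5 μL sample in 200 μL water was first sized by dynamic light scattering, then diluted with 600 μL more water for potential measurement.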

[2] = Particle size and PDI of nucleic acid lipid nanoparticle preparations by dynamic light scattering; type: physicochemical
Summary of the method: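 Size read by DLS after diluting the LNP preparation (approx. 0.04 mg/mL mRNA) in ultrapure water with gentle pipette mixing. The same sample, recovered and diluted further with water, was then used for zeta potential measurement.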

mice = experiment: In vivo delivery of FLuc-mRNA lipid nanoparticles in mice, in vivo imaging (IVIS)
Summary of the method: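 Mice (n=3) received about 75 μL FLuc-mRNA LNP per mouse intramuscularly (rectus femoris), intravenously (tail vein), intraperitoneally or subcutaneously (back). After injection, D-luciferin (200 μL, 15 mg/mL) was given i.p. 10-15 min before IVIS imaging.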

[3] = DMG-PEG2000:DSPC:Chol:compound 1.00:10.00:33.00:56.00, N/P 48
[4] = DMG-PEG2000:DSPC:Chol:Lipid 0.50:4.00:47.00:48.50, N/P 36, mRNA LNP
[5] = DMG-PEG2000:DSPC:Chol:Lipid 1.00:4.00:25.00:70.00, N/P 36, mRNA LNP
[6] = DMG-PEG2000:DSPC:Chol:Lipid 1.00:16.00:48.00:35.00, N/P 18, mRNA LNP
[7] = DMG-PEG2000:DSPC:Chol:Lipid 1.40:11.15:38.95:48.50, N/P 18, mRNA LNP
[8] = DMG-PEG2000:DSPC:Chol:Lipid 0.50:4.00:47.00:48.50, N/P 36, IV, liver
[9] = DMG-PEG2000:DSPC:Chol:Lipid 0.50:4.00:47.00:48.50, N/P 36, IV, lung
[10] = DMG-PEG2000:DSPC:Chol:Lipid 0.50:4.00:47.00:48.50, N/P 36, IV, spleen
[11] = DMG-PEG2000:DSPC:Chol:Lipid 1.00:4.00:25.00:70.00, N/P 36, IV, liver
[12] = DMG-PEG2000:DSPC:Chol:Lipid 1.00:4.00:25.00:70.00, N/P 36, IV, lung
[13] = DMG-PEG2000:DSPC:Chol:Lipid 1.00:4.00:25.00:70.00, N/P 36, IV, spleen
[14] = DMG-PEG2000:DSPC:Chol:Lipid 1.00:16.00:48.00:35.00, N/P 18, IV, liver
[15] = DMG-PEG2000:DSPC:Chol:Lipid 1.00:16.00:48.00:35.00, N/P 18, IV, lung
[16] = DMG-PEG2000:DSPC:Chol:Lipid 1.00:16.00:48.00:35.00, N/P 18, IV, spleen
[17] = DMG-PEG2000:DSPC:Chol:compound 1.40:11.15:38.95:48.50, N/P 20
[18] = IM, DMG-PEG2000:DSPC:Chol:compound 1.40:11.15:38.95:48.50, N/P 20, Fluc-mRNA
[19] = IV, organ not given, DMG-PEG2000:DSPC:Chol:compound 1.40:11.15:38.95:48.50, N/P 20, Fluc-mRNA
[20] = mRNA LNP, 1.00:4.00:30.00:65.00, N/P 30
[21] = mRNA LNP, 1.40:11.15:38.95:48.50, N/P 30
[22] = mRNA LNP, 1.00:4.00:30.00:65.00, N/P 30, IV, liver
[23] = mRNA LNP, 1.00:4.00:30.00:65.00, N/P 30, IV, lung
[24] = mRNA LNP, 1.00:4.00:30.00:65.00, N/P 30, IV, spleen
[25] = mRNA LNP, 1.40:11.15:38.95:48.50, N/P 30, IV, liver
[26] = mRNA LNP, 1.40:11.15:38.95:48.50, N/P 30, IV, lung
[27] = mRNA LNP, 1.40:11.15:38.95:48.50, N/P 30, IV, spleen
[28] = DMG-PEG2000:DSPC:Chol:compound 1.40:11.15:38.95:48.50, N/P 30

CCCCCCCCCCCCNC(=O)C(O)CN(CCCN(CCCN(CC(O)C(=O)NCCCCCCCCCCCC)CC(O)C(=O)NCCCCCCCCCCCC)CC(O)CO)CC(O)C(=O)NCCCCCCCCCCCC (stereo not shown) [Compound L0273]
Zeta potential (mV) [1, 3]: 13.60 mV | PDI [2, 4]: 0.11 ± 0.01 | Particle size [2, 4]: 113.50 ± 0.20 nm | PDI [2, 5]: 0.18 ± 0.01 | Particle size [2, 5]: 167.67 ± 2.20 nm | PDI [2, 6]: 0.15 ± 0.02 | Particle size [2, 6]: 119.23 ± 0.68 nm | PDI [2, 7]: 0.13 ± 0.02 | Particle size [2, 7]: 91.45 ± 0.74 nm | PDI [2, 3]: 0.13 | Particle size (nm) [2, 3]: 125.97 nm | IVIS (mice; DMG-PEG2000:DSPC:Chol:Lipid 0.50:4.00:47.00:48.50, N/P 36, IV, body): 5.29 × 10^7 | % of organ targeting (mice; [8]): 1.50% | IVIS (mice; [8]): 2.55 × 10^6 | % of organ targeting (mice; [9]): 95.51% | IVIS (mice; [9]): 1.62 × 10^8 | % of organ targeting (mice; [10]): 2.99% | IVIS (mice; [10]): 5.07 × 10^6 | IVIS (mice; DMG-PEG2000:DSPC:Chol:Lipid 1.00:4.00:25.00:70.00, N/P 36, IV, body): 1.65 × 10^8 | % of organ targeting (mice; [11]): 1.40% | IVIS (mice; [11]): 6.91 × 10^6 | % of organ targeting (mice; [12]): 97.42% | IVIS (mice; [12]): 4.82 × 10^8 | % of organ targeting (mice; [13]): 1.19% | IVIS (mice; [13]): 5.88 × 10^6 | IVIS (mice; DMG-PEG2000:DSPC:Chol:Lipid 1.00:16.00:48.00:35.00, N/P 18, IV, body): 3.19 × 10^7 | % of organ targeting (mice; [14]): 14.38% | IVIS (mice; [14]): 3.44 × 10^6 | % of organ targeting (mice; [15]): 9.95% | IVIS (mice; [15]): 2.38 × 10^6 | % of organ targeting (mice; [16]): 75.67% | IVIS (mice; [16]): 1.81 × 10^7 | IVIS (mice; DMG-PEG2000:DSPC:Chol:Lipid 1.40:11.15:38.95:48.50, N/P 18, IM, whole body scan): 2.54 × 10^6 | IVIS (mice; IV, body, DMG-PEG2000:DSPC:Chol:compound 1.00:10.00:33.00:56.00, N/P 48, Fluc-mRNA): 4.36E+08 | % of organ targeting (mice; IV, liver, DMG-PEG2000:DSPC:Chol:compound 1.00:10.00:33.00:56.00, N/P 48): 0.73% | IVIS (mice; IV, liver, DMG-PEG2000:DSPC:Chol:compound 1.00:10.00:33.00:56.00, N/P 48, Fluc-mRNA): 5.72E+06 | % of organ targeting (mice; IV, lung, DMG-PEG2000:DSPC:Chol:compound 1.00:10.00:33.00:56.00, N/P 48): 98.17% | IVIS (mice; IV, lung, DMG-PEG2000:DSPC:Chol:compound 1.00:10.00:33.00:56.00, N/P 48, Fluc-mRNA): 7.69E+08 | % of organ targeting (mice; IV, spleen, DMG-PEG2000:DSPC:Chol:compound 1.00:10.00:33.00:56.00, N/P 48): 1.09% | IVIS (mice; IV, spleen, DMG-PEG2000:DSPC:Chol:compound 1.00:10.00:33.00:56.00, N/P 48, Fluc-mRNA): 8.58E+06 | in vivo delivery efficiency as compared to the benchmark compound SM102 (mice; certain formulations, Table 2): superior in vivo delivery efficiency | tissue-targeting specificity (lung vs spleen depending on molar percentage of compound) (mice; certain formulations, Table 2): strong tissue-targeting specificity

CCCCCCCCCCCCOC(=O)C(O)CN(CCCCCN(CC(O)C(=O)OCCCCCCCCCCCC)CC(O)C(=O)OCCCCCCCCCCCC)CC(O)C(=O)OCCCCCCCCCCCC (stereo not shown) [Compound L0319]
Zeta potential (mV) [1, 17]: 11.20 mV | PDI [2, 17]: 0.13 | Particle size (nm) [2, 17]: 172.83 nm | IVIS (mice; [18]): 7.22E+05 | IVIS (mice; [19]): 1.32E+06

CCCCCCCCCCCCNC(=O)CCN(CCC(=O)NCCCCCCCCCCCC)CCN(C)CCN(CCC(=O)NCCCCCCCCCCCC)CCC(=O)NCCCCCCCCCCCC [L0264-Control, reference compound]
Zeta potential (mV) [1, 20]: 13.40 mV | Zeta potential (mV) [1, 21]: 16.43 mV | PDI [2, 20]: 0.17 | Particle size (nm) [2, 20]: 97.75 nm | PDI [2, 21]: 0.18 | Particle size (nm) [2, 21]: 91.53 nm | % of organ targeting (mice; [22]): 0.58% | IVIS (mice; [22]): 1.67E+06 | % of organ targeting (mice; [23]): 86.18% | IVIS (mice; [23]): 2.49E+08 | % of organ targeting (mice; [24]): 13.25% | IVIS (mice; [24]): 3.82E+07 | IVIS (mice; mRNA LNP, 1.40:11.15:38.95:48.50, N/P 30, IM, organ not given): 1.37E+05 | % of organ targeting (mice; [25]): 1.25% | IVIS (mice; [25]): 8.01E+05 | % of organ targeting (mice; [26]): 74.91% | IVIS (mice; [26]): 4.81E+07 | % of organ targeting (mice; [27]): 23.85% | IVIS (mice; [27]): 1.53E+07 | IVIS (mice; mRNA LNP, DMG-PEG2000:DSPC:Chol:lipid 1.00:4.00:30.00:65.00, N/P 30, IV, body): 1.10E+08 | IVIS (mice; mRNA LNP, DMG-PEG2000:DSPC:Chol:lipid 1.40:11.15:38.95:48.50, N/P 30, IV, body): 2.50E+07

CCCCCCCCCCCCNC(=O)C(O)CNCCN(C)CCN(CC(O)C(=O)NCCCCCCCCCCCC)CC(O)C(=O)NCCCCCCCCCCCC (stereo not shown) [Compound L0290]
Zeta potential (mV) [1, 28]: 15.97 mV | PDI [2, 28]: 0.17 | Particle size (nm) [2, 28]: 89.51 nm | IVIS (mice; IM, DMG-PEG2000:DSPC:Chol:compound 1.40:11.15:38.95:48.50, N/P 30, Fluc-mRNA): 3.06E+05 | IVIS (mice; IV, organ not given, DMG-PEG2000:DSPC:Chol:compound 1.40:11.15:38.95:48.50, N/P 30, Fluc-mRNA): 1.18E+06

CCCCCCOC(C)OCCCCCCOC(=O)C(O)CN(C)CCN(C)CCN(C)CC(O)C(=O)OCCCCCCOC(C)OCCCCCC (stereo not shown) [Compound L0300]
Zeta potential (mV) [1, 17]: 5.14 mV | PDI [2, 17]: 0.13 | Particle size (nm) [2, 17]: 157.77 nm | IVIS (mice; [18]): 1.09E+06 | IVIS (mice; [19]): 7.12E+05

CCCCCCCCCCOC(=O)C(O)CN(CCOCCOCCN(CC(O)C(=O)OCCCCCCCCCC)CC(O)C(=O)OCCCCCCCCCC)CC(O)C(=O)OCCCCCCCCCC (stereo not shown) [Compound L0324]
Zeta potential (mV) [1, 17]: 5.44 mV | PDI [2, 17]: 0.47 | Particle size (nm) [2, 17]: 445.20 nm | IVIS (mice; [18]): 4.15E+05 | IVIS (mice; [19]): 7.27E+05

CCCCCCCCCCNC(=O)C(O)CN(CCCCCCCN(CC(O)C(=O)NCCCCCCCCCC)CC(O)C(=O)NCCCCCCCCCC)CC(O)C(=O)NCCCCCCCCCC (stereo not shown) [Compound L0323]
Zeta potential (mV) [1, 17]: 8.37 mV | PDI [2, 17]: 0.14 | Particle size (nm) [2, 17]: 94.78 nm | IVIS (mice; [18]): 7.24E+05 | IVIS (mice; IV, body, DMG-PEG2000:DSPC:Chol:compound 1.40:11.15:38.95:48.50, N/P 20, Fluc-mRNA): 2.95E+06 | % of organ targeting (mice; IV, liver, DMG-PEG2000:DSPC:Chol:compound 1.40:11.15:38.95:48.50, N/P 20): 44.01% | IVIS (mice; IV, liver, DMG-PEG2000:DSPC:Chol:compound 1.40:11.15:38.95:48.50, N/P 20, Fluc-mRNA): 8.40E+05 | % of organ targeting (mice; IV, lung, DMG-PEG2000:DSPC:Chol:compound 1.40:11.15:38.95:48.50, N/P 20): 6.06% | IVIS (mice; IV, lung, DMG-PEG2000:DSPC:Chol:compound 1.40:11.15:38.95:48.50, N/P 20, Fluc-mRNA): 1.16E+05 | % of organ targeting (mice; IV, spleen, DMG-PEG2000:DSPC:Chol:compound 1.40:11.15:38.95:48.50, N/P 20): 49.93% | IVIS (mice; IV, spleen, DMG-PEG2000:DSPC:Chol:compound 1.40:11.15:38.95:48.50, N/P 20, Fluc-mRNA): 9.53E+05
